Laboratory results as given in patent publication US9604932B2 (priority 2013, dated 2017).

How the values were obtained:
[1] = Incubation of R-107 in mouse plasma, relative concentrations by HPLC; format: in vitro ADME; settings: R-107 4 mM in mouse plasma, 37° C.
Protocol: (§1) In an in vitro study, 2,2,5,5-tetramethyl-3-(nitrooxymethyl)pyrrolidin-1-yl acetate (R-107) was incubated in mouse or rat plasma at 37° C. at a concentration of 4 mM, and the relative concentrations of this compound as well as of its corresponding hydroxylamine, (1-hydroxy-2,2,5,5-tetramethylpyrrolidin-3-yl) methyl nitrate (R-105), and 3-nitratomethyl-2,2,5,5-tetramethylpyrrolidinyloxy (R-100), were measured by HPLC.

[2] = Incubation of R-107 in rat plasma, relative concentrations by HPLC; format: in vitro ADME; settings: R-107 4 mM in rat plasma, 37° C.
Protocol: as §1

[3] = Plasma pharmacokinetics in pig (release of R-100 from R-107), LCMS; format: in vivo; settings: for concentration at 0.08 h: 0.08 hrs post dose; for concentration at 0.17 h: 0.17 hrs post dose; for concentration at 0.25 h: 0.25 hrs post dose; for concentration at 0.5 h: 0.5 hrs post dose; for concentration at 1 h: 1 hrs post dose; for concentration at -0.08 h: −0.08 hrs post dose
Protocol: In the following two experiments, the pharmacokinetic of releasing R-100 from R-107, via R-105 that is the reduced form of R-100, was studied in vivo according to the protocol described herein.
100 μl aliquots plasma obtained from R-107-treated sheep or pig were thawed and 200 μl ice-cold ethanol was added to each 100 μl sample to precipitate protein. Samples were then vortexed, placed on ice for 10 minutes, and then spun down at room temperature for 15 minutes. A first 100 μl supernatant from each spun sample was withdrawn and placed in a labeled HPLC micro vial to which 300 μl MPA (LC mobile phase A) was added, and the vial contents were then mixed and submitted for LCMS analysis (kept at 4° C.). The concentration of R-107 was measured in this sample as was the concentration of R105. A second 100 μl supernatant from each spun sample was added to a labelled HPLC micro vial to which 300 μl MPA and 2 μl of Reducing solution (ascorbic acid, 1.0 mg/ml in water) were added. These vials were vortexed; incubated at 50° C. for 1 hour with gentle shaking; and were then cooled to 4° C. and submitted for LCMS analysis. This sample was analyzed for R105, i.e., reduced form of R-100, and the amount measured thus represents the sum of R-100 and R-105 originally present in the plasma. The concentration of R-100 can be calculated from that of the R-105 in the second sample minus that of R-105 in the first sample. However, the concentrations of R-105 were seen to be low (approximately 10% or less of those of R-100) and so the results reported below as R-100 are not corrected for R-105.
Sets of standards (R-100, R-105 and R-107) were prepared by spiking individually in pig plasma. 100 μl aliquots of these spiked plasma samples, after thawing, were included in the above extraction protocol.
Analysis method were carried out with an Agilent HPLC stack, with column eluate directed, via a diverter valve, into the source of an AB Sciex ‘Qstar Elite’ Hybrid TOF, high-resolution mass spectrometer. LC column: Phenomenex Kinetex C18 2.6u 100A, 2.1×50 mm. LC mobile phase A: H2O with 0.02% trifluoroacetic acid (TFA), 0.1% formic acid (HOF); Phase B: acetonitrile (ACN) with 0.02% TFA, 0.1% HOF. Mobile phase flow rate=500 μl/min. Injection size: 8 μl, via Agilent 1100 u-WPS autosampler.

[4] = system: Pseudomonas aeruginosa (PSA)-induced septic pneumonia; experiment: Sheep model of septic pneumonia; format: in vivo, Merino sheep; settings: protocol only; total 80 mg/kg BID IV
From the text: In this study, a model of sheep suffering from Pseudomonas aeruginosa (PSA)-induced septic pneumonia and consequent pulmonary dysfunction is used. Female Merino sheep are operatively instrumented for chronic study with Swan-Ganz®, i.e., pulmonary artery, and femoral artery catheters, and are randomly allocated to vehicle control or R-107 treatment group. Smoke inhalation injury (48 breaths of cotton smoke) is induced and 2.4×10^11 colony-forming units (CFU) of PSA are instilled in the lung via bronchoscope under general anesthesia. The animal in the treatment group are intravenously (IV) administered with a total of 80 mg/kg of R-107 BID. Ringer's lactate solution is titrated IV to maintain hematocrit (hct) at baseline±3%. Measurements are taken at baseline and every 3 hours during the 24 hours study period. Data are expressed as mean±SEM. Statistical analysis: two-way ANOVA and Bonferroni post hoc comparison. A p-value <0.05 is considered as statistically significant.

[5] = system: renal ischemia-reperfusion injury; experiment: Rat model of renal ischemia-reperfusion injury; format: in vivo, Sprague-Dawley rats; settings: protocol only; 80 mg/kg IV infusion
[6] = system: acute retinal ischemia-reperfusion injury; experiment: Porcine model of acute retinal ischemia-reperfusion injury; format: in vivo; settings: protocol only; 10, 30, 80 mg/kg/day IV BID
Protocol: In this study, a porcine model of acute retinal ischemia-reperfusion injury (n=6 per group) is induced by equilibration with an elevated saline reservoir to create a static IOP of 90 mmHg for 90 min. Task #1: Microvascular responsiveness: A dose-response of parenteral R-107 (0, 10, 30, 80 mg/kg/day IV BID) is initiated 10 minutes before reperfusion. 1 hour after reperfusion, retinal microvessels are harvested and cannulated for ex vivo analysis of vascular responsiveness to endothelium dependent and independent vasodilators. Task #2: Retinal function and morphology: R-107 is given 10 minutes before reperfusion (at a dose determined by Task #1) and its efficacy judged by electroretinogram (1, 2, 7 days post-reperfusion) and retinal histology, ultrastructure, and drug concentration (Day 7).

[7] = IV R-107 diluted in 4 parts of PEG400, 18 mg/kg over 6 minutes, 24 hrs post dose
[8] = capsule per os of neat R-107 88 mg/kg, 24 hrs post dose
[9] = plasma, IV R-107 diluted in 4 parts of PEG400, 18 mg/kg over 6 minutes
[10] = plasma, IV neat R-107 88 mg/kg over 6 minutes
[11] = plasma, oral, capsule per os of neat R-107 88 mg/kg

Structure (SMILES): CC(=O)ON1C(C)(C)CC(CO[N+](=O)[O-])C1(C)C (stereo not drawn) [R-107, 2,2,5,5-tetramethyl-3-(nitrooxymethyl)pyrrolidin-1-yl acetate]
- Relative concentration of R-107 ([1]; 0.1 hrs): 326
- Relative concentration of R-107 ([1]; 1.5 hrs): 284
- Relative concentration of R-107 ([1]; 20 hrs): 0
- Relative concentration of R-107 ([2]; 0.1 hrs): 246
- Relative concentration of R-107 ([2]; 1.5 hrs): 18
- Relative concentration of R-107 ([2]; 20 hrs): 0
- R-107 in plasma ([3]; IV R-107 diluted in 4 parts of PEG400, 18 mg/kg over 6 minutes, 2 hrs post dose): not detected
- R-107 in plasma ([3]; IV R-107 diluted in 4 parts of PEG400, 18 mg/kg over 6 minutes, 4 hrs post dose): not detected
- R-107 in plasma ([3]; IV R-107 diluted in 4 parts of PEG400, 18 mg/kg over 6 minutes, 8 hrs post dose): not detected
- R-100 in plasma [3, 7]: not detected
- R-107 in plasma [3, 7]: not detected
- R-107 in plasma ([3]; IV neat R-107 88 mg/kg over 6 minutes, 6 hrs post dose): not detected
- R-107 in plasma ([3]; IV neat R-107 88 mg/kg over 6 minutes, 24 hrs post dose): not detected
- R-107 in plasma ([3]; capsule per os of neat R-107 88 mg/kg, 8 hrs post dose): not detected
- R-100 in plasma [3, 8]: not detected
- R-107 in plasma [3, 8]: not detected
- concentration at 0.08 h [3, 9]: 2380 ng/mL
- concentration at 0.17 h [3, 9]: 640 ng/mL
- concentration at 0.25 h [3, 9]: 430 ng/mL
- concentration at 0.5 h [3, 9]: 250 ng/mL
- concentration at 1 h [3, 9]: 220 ng/mL
- concentration at -0.08 h [3, 9]: 0 ng/mL
- concentration at 0.08 h [3, 10]: 5240 ng/mL
- concentration at 0.17 h [3, 10]: 5870 ng/mL
- concentration at 0.25 h [3, 10]: 3430 ng/mL
- concentration at 0.5 h [3, 10]: 1320 ng/mL
- concentration at 1 h [3, 10]: 360 ng/mL
- concentration at 2 h ([3]; plasma, IV neat R-107 88 mg/kg over 6 minutes, 2 hrs post dose): 260 ng/mL
- concentration at -0.08 h [3, 10]: 0 ng/mL
- concentration at 0.08 h [3, 11]: 1.32 ng/mL
- concentration at 0.17 h [3, 11]: 0.715 ng/mL
- concentration at 0.5 h [3, 11]: 0.345 ng/mL
- concentration at 1 h [3, 11]: 0.11 ng/mL
- concentration at 2 h ([3]; plasma, oral, capsule per os of neat R-107 88 mg/kg, 2 hrs post dose): 0.222 ng/mL
- concentration at 3 h ([3]; plasma, oral, capsule per os of neat R-107 88 mg/kg, 3 hrs post dose): 0.11 ng/mL
- concentration at 4 h ([3]; plasma, oral, capsule per os of neat R-107 88 mg/kg, 4 hrs post dose): 0.122 ng/mL
- Efficacy in sheep model of septic pneumonia [4]: Effective
- Efficacy in rat model of renal ischemia-reperfusion injury [5]: Effective
- Efficacy in porcine model of acute retinal ischemia-reperfusion injury [6]: Effective
